# Values of other authors as cited in patent US6533967B1, “Initiating system for solid polyester granule manufacture” (Orica Australia Pty Ltd, priority 1999, dated 2003).
# Tested on: rat
# Conditions: inhalation of vapours, 4 h
smiles,measurement,value
"CCN(CC)c1ccccc1 [N,N-diethylaniline]",LC50 rat,1920 mg/m^3/4 h
